Assay results from patent publication US8663643B2, “Combinations of an anti-HER2 antibody-drug conjugate and chemotherapeutic agents, and methods of use” (Genentech, Inc., priority 2008, dated 2014).
“And” between values parts separate entries of the source, which are not always exact repeats. Equal values may be shown once.

What was measured:
[1] = test system: MMTV-Her2 Fo5 transgenic mammary tumor; assay: MMTV-Her2 Fo5 transgenic mammary tumor in Harlan athymic nude mice; type: in vivo; details: for single agent efficacy vs vehicle: FIG. 14, lapatinib 101 mg/kg po bid×21, pertuzumab 40 mg/kg iv qwk×4, B20-4.1 5 mg/kg ip 2×/wk×4, T-DM1 15 mg/kg iv q3wk; for efficacy vs vehicle by both time to tumor doubling and time to tumor endpoint: ABT-869 15 mg/kg, T-DM1 either 7.5 or 15 mg/kg
Protocol: (§1) The efficacy of the combinations of the invention may be measured in vivo by implanting allografts or xenografts of cancer cells in rodents and treating the tumors with the combinations.
The time to tumor doubling was measured by Kaplan-Meier statistical analysis as 2× Vo. Time to tumor doubling and survival analysis were quantified by Log-rank-p values. Time to progression is measured as the elapsed time for tumor volume to reach 1000 mm^3, or the survival time if 1000 mm^3 tumor volume is not reached.
(§2) Animals suitable for transgenic experiments can be obtained from standard commercial sources. Groups of female CB-17 SCID beige mice (Charles River Laboratory) were implanted with 3 million KPL-4 (Her2 overexpressing) breast cancer cells with matrigel in the mammary fat pad. Groups of female athymic nude mice (Charles River Laboratory or Harlan) were implanted with 2×2 mm3 fragments of MMTV-Her2 Fo5 transgenic breast tumors in the mammary fat pad. Mouse xenografts were dosed at day 0 with drug, drug combination, or vehicle according to the schedule specified for each tumor model. […] Tumor sizes were recorded twice weekly over the course of the study. Mouse body weights were also recorded twice weekly, and the mice were observed regularly. […] Tumor inhibition graphs were plotted using KaleidaGraph, Version 3.6 (Synergy Software; Reading, Pa.). The tumor volume was calculated with formula: Tumor size (mm^3)=[…]
(§3) Tumor incidence (TI) was determined based on the number of measurable tumors remaining in each group at the end of the study. A partial response (PR) was defined as more than 50% but less than 100% reduction in tumor volume, compared with the starting tumor volume, observed for three consecutive measurements. A complete response (CR) was defined as a 100% reduction in tumor volume, compared with the initial tumor volume, observed for three consecutive measurements. Data were analyzed and p-values were determined using the Dunnett's t-test with JMP statistical software, version 5.1.2 (SAS Institute; Cary, N.C.). Individual tumor volumes at end of study and mean tumor volume±SEM values were calculated using JMP statistical software, version 5.1.2. Body weight data were graphed based on the mean percentage of change from initial body weights±SEM.

[2] = test system: KPL-4 tumors; assay: KPL-4 tumor xenograft in SCID beige mice; type: in vivo; details: for complete responses (CR) / partial responses (PR): FIG. 10
Protocol: Pertuzumab was dosed on days 0, 7, and 14.
Pertuzumab was dosed on days 0, 7, 14, 21 (qwk×4. 5-FU was dosed on days 0, 7 and 14 (qwk×3). B20-4.1 was dosed on days 0, 3, 7, 10, 14, 17, 21 and 24 (2×/wk×8 total).
as §1, §2, §3

[3] = test system: MDA-MB-361.1 mammary tumor; assay: MDA-MB-361.1 mammary tumor xenograft in CRL nu/nu mice; type: in vivo
Protocol: as §1, §3

[4] = test system: phospho-Akt, phospho-ERK, Rb, PRAS40, phospho-histone H3, cyclin B1, PARP, Bcl-XL, caspases 3 and 7; assay: biochemical analyses of biomarkers; type: cell-based
[5] = test system: MMTV-HER2 Fo5 transgenic mammary tumor; assay: MMTV-HER2 Fo5 transgenic mammary tumor in CRL nu/nu mice; type: in vivo; details: FIG. 34; T-DM1 10 mg/kg iv q3wk; 5-FU 100 mg/kg po qwk×2; combination T-DM1 5 mg/kg + 5-FU 100 mg/kg; 42 day time point
Protocol: B20-4.1 was dosed on days 0, 3, 7, 10, 14, 17, 21 and 24 (2×/wk×4 for 8 total).
[…] Gemcitabine was dosed on days 0, 3, 6 and 9 (q3d×4).
The efficacy of the combinations of the invention may be measured in vivo by implanting allografts or xenografts of cancer cells in rodents and treating the tumors with the combinations. Variable results are to be expected depending on the cell line, the presence or absence of certain mutations in the tumor cells, the sequence of administration of trastuzumab-MCC-DM1 and chemotherapeutic agent, dosing regimen, and other factors. Subject mice were treated with drug(s) or control (Vehicle) and monitored over several weeks or more to measure the time to tumor doubling, log cell kill, and tumor inhibition (Example 3). FIGS. 10-17 and 34-37 show the efficacy of trastuzumab-MCC-DM1 in combinations with chemotherapeutic agents by xenograft tumor inhibition in mice.
Animals suitable for transgenic experiments can be obtained from standard commercial sources. Groups of female CB-17 SCID beige mice (Charles River Laboratory) were implanted with 3 million KPL-4 (Her2 overexpressing) breast cancer cells with matrigel in the mammary fat pad. Groups of female athymic nude mice (Charles River Laboratory or Harlan) were implanted with 2×2 mm3 fragments of MMTV-Her2 Fo5 transgenic breast tumors in the mammary fat pad. Mouse xenografts were dosed at day 0 with drug, drug combination, or vehicle according to the schedule specified for each tumor model. 5-FU, gemcitabine, carboplatin and B20-4.1 were administered intraperitoneal, pertuzumab was given either intravenously or intraperitoneal as indicated, trastuzumab-MCC-DM1 and docetaxel were administered intravenously, lapatinib, GDC-0941 and ABT-869 were given periorally by gavage. Tumor sizes were recorded twice weekly over the course of the study. Mouse body weights were also recorded twice weekly, and the mice were observed regularly. Tumor volume was measured in two dimensions (length and width) using Ultra Cal IV calipers (Model 54-10-111; Fred V. Fowler Co., Inc.; Newton, Mass.) and analyzed using Excel v.11.2 (Microsoft Corporation; Redmond, Wash.). Tumor inhibition graphs were plotted using KaleidaGraph, Version 3.6 (Synergy Software; Reading, Pa.). The tumor volume was calculated with formula: Tumor size (mm^3)=[…]
Tumor incidence (TI) was determined based on the number of measurable tumors remaining in each group at the end of the study. […] Data were analyzed and p-values were determined using the Dunnett's t-test with JMP statistical software, version 5.1.2 (SAS Institute; Cary, N.C.). Individual tumor volumes at end of study and mean tumor volume±SEM values were calculated using JMP statistical software, version 5.1.2. […]

[6] = phase I study of GDC-0941 as a single agent; type: in vivo, human; details: 60 mg qd
[7] = FIG. 16, T-DM1 15 mg/kg iv q3wk×2, 15 mg/kg
[8] = FIG. 17, T-DM1 15 mg/kg iv q3wk×2
[9] = FIG. 36 (5), T-DM1 3 mg/kg iv q3wk
[10] = FIG. 36 (6), T-DM1 10 mg/kg iv q3wk
[11] = FIG. 37 (2), GNE-390 1.0 mg/kg po qd×21
[12] = FIG. 37 (3), GNE-390 2.5 mg/kg po qd×21
[13] = FIG. 36 (2), GDC-0941 25 mg/kg po qd×21
[14] = FIG. 36 (3), GDC-0941 50 mg/kg po qd×21
[15] = FIG. 36 (4), GDC-0941 100 mg/kg po qd×21
[16] = pertuzumab 15 mg/kg, days 0, 7, 14

For T-DM1, the “single agent efficacy vs vehicle” value [1] was “efficacious as a single agent”, the “efficacy vs vehicle by both time to tumor doubling and time to tumor endpoint” value ([1]; FIG. 15, p<0.01) was “significantly better than vehicle” and the objective responses ([1]; FIG. 16, T-DM1 7.5 mg/kg iv q3wk×2) was “no objective responses”. The “complete response (CR)” value [1, 7] was 1 and 2, the “partial responses (PR)” value [1, 7] was 6 and 5 and the “complete responses (CR)” value [1, 8] was 3. The “partial responses (PR)” value [1, 8] was 6, the “complete responses (CR)” value ([2]; T-DM1 0.3 mg/kg once on day 0) was 0 and the “partial responses (PR)” value ([2]; T-DM1 0.3 mg/kg once on day 0) was 0. The “complete responses (CR)” value ([2]; T-DM1 1 mg/kg once on day 0) was 0, the “partial responses (PR)” value ([2]; T-DM1 1 mg/kg once on day 0) was 1 and the “complete responses (CR)” value ([2]; T-DM1 3 mg/kg once on day 0) was 0. The “partial responses (PR)” value ([2]; T-DM1 3 mg/kg once on day 0) was 7, the “remaining tumors less than 50 mm^3 with no evidence of viable tumor cells (histology, end of study)” value ([2]; FIG. 11, T-DM1 5 mg/kg single iv, 5-FU 100 mg/kg qwk×3, pertuzumab 40 mg/kg qwk×4) was 8 samples and the “complete response (CR)” value [3, 9] was 1. The “partial responses (PR)” value [3, 9] was 1, the “complete response (CR)” value [3, 10] was 1 and the “partial responses (PR)” value [3, 10] was 8. The “apoptosis (23 kDa PARP-cleavage fragment, Bcl-XL, activation of caspases 3 and 7)” value [4] was “resulted in apoptosis”, the “phospho-Akt and phospho-ERK” value [4] was “inhibition” and the “levels of the mitotic markers phospho-histone H3 and cyclin B1” value ([4]; after treatment) was “increased levels”. For the same molecule, the “complete responses (CR)” value [5] was 0 and the “partial responses (PR)” value [5] was 1.

In the case of `O=c1[nH]cc(F)c(=O)[nH]1` [5-FU, 5-fluoro-1H-pyrimidine-2,4-dione, reference compound], the “complete responses (CR)” value [5] is reported as 0 and the “partial responses (PR)” value [5] is reported as 0.

In the case of `CS(=O)(=O)CCNCc1ccc(-c2ccc3ncnc(Nc4ccc(OCc5cccc(F)c5)c(Cl)c4)c3c2)o1` [lapatinib, N-(3-chloro-4-(3-fluorobenzyloxy)phenyl)-6-(5-((2-(methylsulfonyl)ethylamino)methyl)furan-2-yl)quinazolin-4-amine, reference compound], the “single agent efficacy vs vehicle” value [1] is reported as “not different from vehicle”.

In the case of `Cc1c(CN2CCN(C(=O)[C@H](C)O)CC2)sc2c(N3CCOCC3)nc(-c3cnc(N)nc3)nc12` [GNE-390, (S)-1-(4-((2-(2-aminopyrimidin-5-yl)-7-methyl-4-morpholinothieno[3,2-d]pyrimidin-6-yl)methyl)piperazin-1-yl)-2-hydroxypropan-1-one], the “complete response (CR)” value [3, 11] is reported as 0, the “partial responses (PR)” value [3, 11] is reported as 0 and the “complete response (CR)” value [3, 12] is reported as 0. The “partial responses (PR)” value [3, 12] was 1.

In the case of `CC(=O)O[C@@]12CO[C@@H]1C[C@H](O)[C@@]1(C)C(=O)[C@H](O)C3=C(C)[C@@H](OC(=O)[C@H](O)[C@@H](NC(=O)OC(C)(C)C)c4ccccc4)C[C@@](O)([C@@H](OC(=O)c4ccccc4)[C@H]21)C3(C)C` [docetaxel, (2R,3S)—N-carboxy-3-phenylisoserine, N-tert-butyl ester, 13-ester with 5,20-epoxy-1,2,4,7,10,13-hexahydroxytax-11-en-9-one 4-acetate 2-benzoate, trihydrate, reference compound], the “partial responses (PR)” value ([1]; FIG. 16, docetaxel 30 mg/kg iv qwk×3) is reported as 2.

In the case of `CS(=O)(=O)N1CCN(Cc2cc3nc(-c4cccc5[nH]ncc45)nc(N4CCOCC4)c3s2)CC1` [GDC-0941, 4-(2-(1H-indazol-4-yl)-6-((4-(methylsulfonyl)piperazin-1-yl)methyl)thieno[3,2-d]pyrimidin-4-yl)morpholine], the “safety of the dose as a single agent” value [6] is reported as “safe as a single agent without any dose limiting toxicities”, the “complete response (CR)” value [3, 13] is reported as 0 and the “partial responses (PR)” value [3, 13] is reported as 0. The “complete response (CR)” value [3, 14] was 0, the “partial responses (PR)” value [3, 14] was 1 and the “complete response (CR)” value [3, 15] was 0. The “partial responses (PR)” value [3, 15] was 0, the “phospho-Akt and phospho-ERK” value [4] was “inhibition” and the “phosphorylation of Rb and PRAS40” value [4] was “decreased phosphorylation”.

For “pertuzumab: recombinant, humanized monoclonal antibody that inhibits dimerization of HER2 (CAS Reg. No. 380610-27-5) [reference compound]”, the “single agent efficacy vs vehicle” value [1] was “not different from vehicle”, the “complete responses (CR)” value [2, 16] was 0 and the “partial responses (PR)” value [2, 16] was 0.

In the case of `Cc1ccc(F)c(NC(=O)Nc2ccc(-c3cccc4[nH]nc(N)c34)cc2)c1` [ABT-869, 1-(4-(3-amino-1H-indazol-4-yl)phenyl)-3-(2-fluoro-5-methylphenyl)urea, reference compound], the “efficacy vs vehicle by time to tumor doubling” value ([1]; FIG. 15, ABT-869 5 mg/kg po bid×21) is reported as “not different than vehicle”, the “efficacy vs vehicle by time to endpoint” value ([1]; FIG. 15, ABT-869 5 mg/kg po bid×21, p<0.01) is reported as “significantly better than vehicle” and the “efficacy vs vehicle by both time to tumor doubling and time to tumor endpoint” value ([1]; FIG. 15, p<0.01) is reported as “significantly better than vehicle”.
